# Test results as given in US9234046B2, “Treatment of renal disease” (OPSONA Therapeutics Ltd, priority 2007, dated 2016).
# Several values for one entry are separate records, joined by “and”; a condition that tells them apart may be missing. Equal entries are not always repeated.
# Key:
# C57BL/6 mice [1] = assay: Nephrotoxic serum + Pam3CysSK4 glomerular inflammation model, 24 hours: albuminuria and glomerular thrombosis; assay type: in vivo
# Description: (§1) Methods for generating nephrotoxic antibody, blood counts, processing histology, assessment of histology are disclosed in Brown H J, Lock, H R, Sacks S H, Robson M G TLR2 stimulation of intrinsic kidney cells in the induction of immune mediated glomerulonephritis, J Immunol 2006, 177(3):1925-1931, the contents of which are incorporated herein by reference. These methods were followed in the performance of the present example.
# Kidney samples were fixed for 4 hours in Bouin's solution, transferred into formalin, then processed and embedded in paraffin. Sections were cut at 0.5 μm thickness and stained with periodic acid-Schiff (PAS) reagent. All samples then were assessed blindly for glomerular thrombosis by identification of the amount of PAS-positive material. In total, 50 glomeruli were assessed for each mouse for signs of glomerular thrombosis, and a score was assigned to each as follows: Grade 0, no PAS-positive material; grade 1, […]; grade 2, 25 to 50%, grade 3, 50 to 75%, and grade 4, 75 to 100%. The average glomerular thrombosis score for each mouse then was calculated. Sections also were assessed blindly for glomerular crescents. A total of 50 glomeruli were assessed, and the number of crescents (two or more layers of cells in Bowman's space) was expressed as a percentage.
# (§2) The glomerular histology was assessed at 2 hours and 24 hours following disease induction with NTS. Kidneys were fixed in Bouin's solution and stained with periodic acid-Schiff reagent. At 2 hours, the number of neutrophils (identified by their characteristic nuclear morphology) per 50 glomerular cross sections was counted. At 24 hours, the amount of glomerular thrombosis was assessed by identification of the amount of periodic acid-Schiff-positive material. In total, 50 glomeruli were assessed for each animal for signs of glomerular thrombosis, and a score was assigned as follows: grade 0, no periodic acid-Schiff-positive material; grade 1, <25%; grade 2, 25-50%; grade 3, 50-75%; grade 4, 75-100%. All sections scored for neutrophils and glomerular thrombosis were done so blindly.
# Mice were housed in metabolic cages for 24 hours for urine collections. The urine albumin concentration was measured by radial immunodiffusion. The sensitivity of the radial immunodiffusion assay for albumin was 0.05 mg/ml. Urine samples were diluted to 1:40 so that values fell on the standard curve.
# 200 ul of nephrotoxic serum containing 10 ug of the lipopetide Pam3CysSK4 (EMC microcollections) was given intravenously via the tail vein. 2 hours prior to this, mice were treated as follows. […]
# The above groups were place in metabolic cages immediately after induction of disease and exsanguinated under anaesthesia 24 hours later. […] Albuminuria and thrombosis data was analysed after a logarithmic transformation.
# C57BL/6 mice [2] = assay: Nephrotoxic serum + Pam3CysSK4 glomerular inflammation model, 2 hours: glomerular neutrophils and circulating leukocytes; assay type: in vivo; settings: individual mice; 2 hours after disease induction; 50 glomerular cross sections counted
# Description: as §1, §2
# 200 ul of nephrotoxic serum containing 10 ug of the lipopetide Pam3CysSK4 (EMC microcollections) was given intravenously via the tail vein. […]
# [3] = 24 hours, versus other treatment groups
smiles,measurement,setting,value
C[C@]12C=CC(=O)C=C1CC[C@@H]1[C@@H]2C(=O)C[C@@]2(C)[C@H]1CC[C@]2(O)C(=O)CO [Prednisone],"albuminuria, in words",C57BL/6 mice [1]; [3],did not reach significance
same,"glomerular thrombosis, in words",C57BL/6 mice [1]; [3],significantly less thrombosis than PBS but not control antibody treated mice
same,"alb, mg/ml (albuminuria)","C57BL/6 mice [1]; individual mice, 24 hour urine collection, radial immunodiffusion",2.54 mg/mL and 4.54 mg/mL and 4.71 mg/mL and 4.98 mg/mL
same,Thromb/50 gloms (glomeruli showing any thrombosis out of a total of 50),"C57BL/6 mice [1]; individual mice, 24 hours after disease induction, treated 2 hours before",7 /50 gloms (3×) and 3 /50 gloms
same,pmn/glom (neutrophils per glomerular cross section),C57BL/6 mice [2],0.54 pmn/glom and 0.28 pmn/glom and 0.42 pmn/glom and 0.24 pmn/glom and 0.34 pmn/glom
